Experimental data as given in patent US12678488B2, “Batch management method for improving farrowing rate or number of piglets born alive in swine” (priority 2024, dated 2026).
Entries after “also recorded” stand apart in the source; their conditions may differ.

System: estradiol
Test: Peripheral blood estradiol level in gilts after insemination by radioimmunoassay (Example 4)
Assay type: in vivo, pigs
Details: once low-dose 12-20 μg/kg·BW, day 2-day 16 after mating
Method: The breed of the gilts used in this experiment was Landrace x Large White binary sows, the gilts were randomly divided into the following 3 groups, and the treatment method for each group was as follows:
batch farrowing with FTAI: the gilts were fed with an altrenogest oral solution at 20 mg/gilt at the same time every day, for 18 days; PMSG at 1000 IU/gilt was injected intramuscularly 42 h after the last feeding with altrenogest, GnRH at 100 μg/gilt was injected intramuscularly after another 80 h, the first timed insemination was performed 24 h after the injection of GnRH, and the second timed insemination was performed after 24 h. […]
Peripheral blood was collected from the gilts in the batch farrowing with FTAI and the batch farrowing with FTAI with supplementing with a single low dose of 1-[bis(4-cyanophenyl)methyl]-1,2,4-triazole at different times after mating, i.e., days 2, 4, 10 12, and 16 after mating, blood was collected from the anterior vena cava of the gilts and centrifuged, the supernatant was taken, stored at −20° C., and then detected for estradiol level by radioimmunoassay.
The detection steps were as follows: 12×75 mm disposable tubes were arranged on a tube rack, and were a total radioactivity counting (tc) tube, a non-specific binding (NSB) tube, a zero standard (0) tube, standard tubes, and sample tubes, respectively. […]

For `N#Cc1ccc(C(c2ccc(C#N)cc2)n2cncn2)cc1` [1-[bis(4-cyanophenyl)methyl]-1,2,4-triazole], the “blood estradiol (estrogen) level after mating” value was “no obvious change; also recorded: no significant effect”.
